Data on 18 molecules can be found in US10597390B2, “Indoles for use in influenza virus infection” (Janssen Sciences Ireland UC, priority 2014, dated 2020).

Molecules are shown by their SMILES.

Data set [1] relates to influenza virus A/Taiwan/1/86 (H1N1). The data set can be described thus: organism not typed. Format: cell-based. The following applies: MDCK, 72 h, CPE in MDCK cells, three days post-virus exposure, ATPlite.
Another data set in a line: in vitro. The following applies: dog, TOX MDCK CC50.

In data set [1], `O=C(N[C@@H]1CCC[C@H](Nc2nc(-c3c[nH]c4c(F)cc(F)cc34)ncc2F)C1)N1CCCC1` (racemic) [Compound 1, N-((cis)-3-((2-(5,7-difluoro-1H-indol-3-yl)-5-fluoropyrimidin-4-yl)amino)cyclohexyl)pyrrolidine-1-carboxamide] gave an IC50 of 3 nM. Also, the midpoint of cytotoxicity in “in vitro”, the CC50 at 3 days, lay at 10200 nM.

Regarding `CC(C)(C)C(CC(=O)O)Nc1nc(-c2c[nH]c3c(F)cc(F)cc23)ncc1F` (racemic) [Compound 2], half-maximal inhibition in data set [1] (IC50) required 11 nM. This molecule registered a CC50 at 3 days in the data set “in vitro” of 5200 nM.

Regarding `Cn1cnc(C(=O)N[C@@H]2CCC[C@H](Nc3nc(-c4c[nH]c5c(F)cc(F)cc45)c(C#N)cc3F)C2)c1` (racemic) [Compound 3], it took 5 nM to reach half-maximal inhibition in data set [1] (IC50). This molecule displayed a 50% cytotoxic concentration (CC50) at 3 days in the data set “in vitro” above 25000 nM.

For the molecule `N#Cc1cc(F)c(N[C@H]2CCC[C@@H](NC(=O)N3CCCC3)C2)nc1-c1c[nH]c2c(F)cc(F)cc12` (racemic) [Compound 4], it took 4 nM to reach half-maximal inhibition in data set [1] (IC50). In “in vitro”, this molecule returned a CC50 at 3 days above 25000 nM.

`CC(=O)NCc1cc(F)c(N[C@H]2CCC[C@@H](NC(=O)N3CCCC3)C2)nc1-c1c[nH]c2c(F)cc(F)cc12` (racemic) [Compound 6]: in data set [1], half-maximal inhibition (IC50) was put at 50 nM. For the same molecule, in the data set “in vitro”, the cytotoxic concentration (CC50) at 3 days is above 25000 nM.

`O=C(N[C@@H]1CCC[C@H](Nc2nc(-c3c[nH]c4c(F)ccc(F)c34)ncc2F)C1)N1CCCC1` (racemic) [Compound 7] came in with an IC50 in data set [1] of 460 nM. The same molecule returned a CC50 at 3 days in “in vitro” above 25000 nM.

In data set [1], `O=C(N[C@H]1CCC[C@@H](Nc2nc(-c3c[nH]c4c(F)cc(F)cc34)c(-c3nnc[nH]3)cc2F)C1)N1CCCC1` (racemic) [Compound 24] displayed an IC50 of 420 nM. Moreover, the CC50 at 3 days in “in vitro” is above 25000 nM.

Consider `O=C(N[C@@H]1CCC[C@H](Nc2nc(-c3c[nH]c4c(F)cc(F)cc34)ncc2F)C1)c1ccccn1` (racemic) [Compound 90], for which the IC50 in data set [1] was 9 nM. Further, in the data set “in vitro”, half-maximal cytotoxicity (CC50 at 3 days) was put at 10900 nM.

In the case of `Cn1cnc(C(=O)N[C@@H]2CCC[C@H](Nc3nc(-c4c[nH]c5c(F)cc(F)cc45)ncc3F)C2)c1` (racemic) [Compound 92], 4 nM corresponded to half-maximal inhibition in data set [1] (IC50). The midpoint of cytotoxicity in “in vitro”, the CC50 at 3 days, lay at 11400 nM.

In data set [1], `Cc1nc(C(=O)N[C@@H]2CCC[C@H](Nc3nc(-c4c[nH]c5c(F)cc(F)cc45)ncc3F)C2)c(C)o1` (racemic) [Compound 93] gave an IC50 of 39 nM. Moreover, in the data set “in vitro”, the 50% cytotoxic concentration (CC50) at 3 days is above 25000 nM.

Consider `Cn1cccc1C(=O)N[C@@H]1CCC[C@H](Nc2nc(-c3c[nH]c4c(F)cc(F)cc34)ncc2F)C1` (racemic) [Compound 94], for which 5 nM corresponded to half-maximal inhibition in data set [1] (IC50). Further, in “in vitro”, the midpoint of cytotoxicity, the CC50 at 3 days, lay at 18400 nM.

For `O=C(N[C@@H]1CCC[C@H](Nc2nc(-c3c[nH]c4c(F)cc(F)cc34)ncc2F)C1)c1ccc(F)cn1` (racemic) [Compound 95], in data set [1], 12 nM corresponded to half-maximal inhibition (IC50). The 50% cytotoxic concentration (CC50) at 3 days in the data set “in vitro” was above 25000 nM.

In turn, `Cc1cc(C(=O)N[C@@H]2CCC[C@H](Nc3nc(-c4c[nH]c5c(F)cc(F)cc45)ncc3F)C2)nn1C` (racemic) [Compound 96] yielded a half-maximal inhibitory concentration (IC50) in data set [1] of 5 nM. The CC50 at 3 days in the data set “in vitro” stood at 10500 nM.

`O=C(N[C@@H]1CCC[C@H](Nc2nc(-c3c[nH]c4c(F)cc(F)cc34)ncc2F)C1)c1ccno1` (racemic) [Compound 97]: it took 12 nM to reach half-maximal inhibition in data set [1] (IC50). This molecule also gave a CC50 at 3 days in “in vitro” above 22700 nM.

In data set [1], `Cc1cc(F)c2[nH]cc(-c3ncc(F)c(N[C@H]4C5CCC(CC5)[C@@H]4C(=O)O)n3)c2c1` (racemic) [Compound 164] registered an IC50 of 11 nM. The same molecule showed a cytotoxic concentration (CC50) at 3 days in “in vitro” of 1700 nM.

Take `N#Cc1cc(F)c2[nH]cc(-c3ncc(F)c(N[C@H]4CCC[C@@H](NC(=O)c5ccccn5)C4)n3)c2c1` (racemic) [Compound 173]: in data set [1], half-maximal inhibition (IC50) was put at 13 nM. Also, the CC50 at 3 days in “in vitro” was above 25000 nM.

In data set [1], `Cn1cnc(C(=O)N[C@@H]2CCC[C@H](Nc3nc(-c4c[nH]c5c(F)cc(C#N)cc45)ncc3F)C2)c1` (racemic) [Compound 174] had an IC50 of 10 nM. In “in vitro”, this molecule came in with a CC50 at 3 days above 25000 nM.

In the case of `CC(C)c1cc(C(=O)N[C@H]2CCC[C@@H](Nc3nc(-c4c[nH]c5c(F)cc(F)cc45)c(C(F)(F)F)cc3F)C2)no1` (racemic) [Compound 182], the CC50 at 3 days in “in vitro” was above 25000 nM.
